The data set can be described thus: gradient 5% acetonitrile 3 min, to 50% in 2 min, to 85% in 15 min, held 3 min, 100 µL/min. The conditions noted are these: column: Zorbax Extend-C18 2.1 x 50 mm; eluents: water / acetonitrile, 0.1% formic acid. Summed up: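 A Zorbax Extend-C18 column (2.1 × 50 mm, 1.8 μm) run at 100 μL/min with water and acetonitrile, both containing 0.1% formic acid, separated mixtures of ~100 pure standards. The HPLC was coupled to a quadrupole time-of-flight mass spectrometer operated in positive and negative ionization mode, with dead and dwell volumes of 40 μL and 900 μL. Each retention time was taken from a computationally picked adduct peak that was then manually inspected.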
Compound `CC(NC(=O)C1c2ccccc2CCN1C(=O)C1CC1)c1ccc(F)cc1` (centres undefined) displayed an RP-LC retention time of 875 s. Next, `c1ccc(Nc2c(-c3ccccc3)nc3cnccn23)cc1`: 826 s. Next, `CCOCCOC1CCN(S(=O)(=O)Cc2ccccc2F)CC1`: 877 s; `CCN1CCN(S(=O)(=O)c2cc(-c3nnc(-c4ccc(OC)c(OC)c4)o3)ccc2C)CC1`: 1180 s; `Cc1ccc(-c2coc(-c3cccc(NS(=O)(=O)c4ccc(Br)s4)c3)n2)cc1`: 1300 s. Next, `COCC(=O)N1CCC([C@H]2[C@@H](OC)C(=O)N2C(C)C)CC1`: 602 s. As to `CCOc1ccc(-n2nnnc2CN2CCN(C(=O)c3cccs3)CC2)cc1`, the RP-LC retention time amounted to 746 s. Next, `O=C(NCC1CCOCC1)c1ccccc1Br`: 671 s; `Cc1cccc(N2CCN(Cc3nc(-c4ccc(N5CCCC(C)C5)nc4)no3)CC2)c1C` (centres undefined): 1260 s; `COc1ccc(NC(=O)Nc2c(-c3cccc(C)c3)nc3ccccn23)cc1Cl`: 702 s. In turn, `CCOC(=O)C1CCN(C(=O)CN2C(=O)COc3ccc(C(=O)N(CC)CC)cc32)CC1` registered an RP-LC retention time of 700 s. Next, `O=C(CSc1cc(N2CCCCC2)ncn1)Nc1cccc(C(F)(F)F)c1`: 1020 s; `CCC(C)NC(=O)c1ccc2c(c1)CC(=O)N2C` (centres undefined): 644 s; `COC[C@@H]1CN(Cc2cc(Cl)ccc2F)C[C@H]1c1nc(C)no1`: 639 s. Next, `Cc1cc(C)c(C(=O)N2CCCC(C(=O)N3CCN(c4cccc(Cl)c4)CC3)C2)[nH]1` (centres undefined): 953 s. Next, `CN1CCc2nnc(C3CCCN3C(=O)Nc3ccc(Cl)cc3C(F)(F)F)n2CC1` (centres undefined): 594 s; `Cc1ccc(C)c(S(=O)(=O)N2CCCN(C)c3ccccc32)c1`: 1100 s; `O=C1CCCN1CCCN1C(=O)[C@H]2CN(Cc3cccc(Cl)c3)C[C@H]2C1=O`: 628 s. Compound `O=C(Nc1ccc2c(c1)OCO2)C1CCCN(c2ccnc(-c3ccc(F)cc3)n2)C1` (centres undefined) returned an RP-LC retention time of 674 s.

Regarding `COc1ccc(C)cc1NC(=O)Cn1c(C)nc2c(sc3nc(-c4ccccc4)ccc32)c1=O`, the RP-LC retention time came out at 1110 s. As to `CC1=C(c2ccc(F)cc2)S(=O)(=O)N=C1N1CCCN(C(=O)c2ccccn2)CC1`, the RP-LC retention time was found to be 713 s. Next, `Cc1ccc(CNC(=O)C2(C)CCCN(C(=O)NCc3ccc(F)cc3)C2)cc1` (centres undefined): 864 s. Next, `CCN(CC)c1nc2cc(C(=O)OC)ccc2c(=O)n1CCc1ccccc1`: 1250 s. Next, `O=S(=O)(Nc1ccc2c(c1)OCO2)c1ccc2nncn2c1`: 648 s; `CCOc1ccccc1NS(=O)(=O)c1ccccc1-c1nc(-c2ccc(F)cc2)no1`: 1150 s. With `COc1cccc(CNC(=O)C2CCCN2S(=O)(=O)c2cc3c(cc2Cl)NC(=O)CO3)c1` (centres undefined), the RP-LC retention time is 880 s. In the case of `Cc1oc(-c2[nH]ncc2C(=O)N2CCOCC2)cc1S(=O)(=O)NCC1CCCCC1`, the RP-LC retention time was 742 s. Next, `COCCNC(=O)CSc1nccc2c1ccn2Cc1ccccc1`: 666 s.

Compound `Cc1ccc(-c2ccc3nn(Cc4nc(-c5ccc(F)c(Br)c5)no4)c(=O)n3n2)cc1` registered an RP-LC retention time of 1090 s. Next, `CN(C)c1ccc(-c2nc3cnc(Br)cn3c2Nc2ccc3c(c2)OCO3)cc1`: 894 s; `COc1ccccc1NC(=O)C1c2cc(OC)c(OC)cc2C(=O)N2CCc3ccccc3C12` (centres undefined): 862 s. Next, `CC1=C(c2ccccc2)S(=O)(=O)N=C1N1CCCN(C(=O)C(C)(C)C)CC1`: 803 s; `Cc1cc(N(C)C)nc(NCCNC(=O)C(C)(C)Oc2ccc(Cl)cc2)n1`: 598 s; `CC(C)S(=O)(=O)c1cc2c(cc1NC(=O)c1ccc(F)cc1)n(C)c(=O)n2C`: 788 s.

With `O=C(NCc1nnnn1C1CCCCC1)C1CC1`, the RP-LC retention time was found to be 647 s. Next, `Cc1ccc(-c2nnc(-c3cccc(S(=O)(=O)NCc4cccnc4)c3)o2)cc1`: 696 s; `CCOc1nccnc1N1CCC(N(C)C(=O)c2ccsc2)C1` (centres undefined): 724 s; `Cc1nn(-c2cc(N3CCOCC3)ncn2)c(C)c1CCC(=O)NCc1ccco1`: 711 s. Next, `CC(C)NC(=O)c1ccc2c(c1)CCN2C(=O)C(C)C`: 733 s; `O=C(NCC(=O)N1CCN(c2ncccn2)CC1)c1c[nH]c2ccccc12`: 615 s. Next, `CCc1ccccc1NC(=O)C1CCCN(S(=O)(=O)c2cc(-c3noc(C)n3)cs2)C1` (centres undefined): 974 s; `Cc1nnc(C2CCCN(C(=O)Cn3c(=O)oc4ccccc43)C2)s1` (centres undefined): 633 s. The compound `CCC(=O)O[C@]1(C(=O)CO)CC[C@H]2[C@@H]3CCC4=CC(=O)CC[C@]4(C)[C@H]3CC[C@@]21C` returned an RP-LC retention time of 1060 s. Next, `Cc1noc(-c2ccnc(-n3cnc(C(=O)NC(C)c4ccc(F)cc4)c3)c2)n1` (centres undefined): 885 s. Next, `Cc1cnc2cc(Cl)ccc2c1SCC(=O)O`: 816 s; `CCn1c(CC2CCN(C(=O)NCC(=O)OC)C2)nc2cccnc21` (centres undefined): 534 s; `Cc1cc(C)c(S(=O)(=O)Nc2cccc(-c3cn4cccc(C)c4n3)c2)cc1C`: 743 s.

The compound `O=C(c1cc(N2C(=O)CCS2(=O)=O)ccc1Cl)N1CCN(c2ccccn2)CC1` had an RP-LC retention time of 566 s. Next, `COc1cc(C(=O)NC2CCN(c3cc(-c4ccc(F)cc4)[nH]n3)C2)cc(OC)c1OC` (centres undefined): 706 s.

As to `CNC(=O)C1CCCN(c2nc3ncn(CC(=O)Nc4ccc(C(C)C)cc4)c(=O)c3s2)C1` (centres undefined), the RP-LC retention time is 731 s.

In turn, `Cc1cc(C(=O)Nc2nnc(SCC(=O)N3CCCc4ccccc43)s2)c(C)o1` came in with an RP-LC retention time of 894 s. Next, `CCC(C)NC(=O)c1ccc(-c2cccs2)nc1` (centres undefined): 816 s; `Cc1cc(-c2nc(C3CC3)no2)c(C)n1CC(=O)Nc1ccc(Cl)cc1`: 1020 s. Turning to `COc1ccc(CC(=O)NC2CCN(c3cc(-c4ccccc4)[nH]n3)C2)cc1OC` (centres undefined), the RP-LC retention time stood at 659 s. Next, `CC(=O)N1CCCSc2ccc(S(=O)(=O)N3CCN(c4ccc(Cl)cc4)CC3)cc21`: 983 s; `CCNC(=O)c1ccc2nc(C)c(C)nc2c1`: 618 s. Next, `COC(=O)c1ncn2c1C(=O)N(Cc1ccc(F)cc1)C(C)(C(=O)NC1CCCCC1)C2` (centres undefined): 752 s.

`O=C(Cn1ccc2sccc2c1=O)N1CCN(c2ccccc2)CC1` yielded an RP-LC retention time of 724 s.

Compound `Cc1ccc2[nH]cc(CCNC(=O)C3CCN(S(=O)(=O)c4ccc5c(ccn5C)c4)CC3)c2c1` displayed an RP-LC retention time of 933 s. With `COc1cccc(CCN2CC(=O)N(c3ccc(C)c(C)c3)[C@@H]3CS(=O)(=O)C[C@@H]32)c1`, the RP-LC retention time is 872 s. Next, `Cc1ccc(-c2cc3c(=O)n(Cc4noc(CN5CCCC5)n4)ccn3n2)cc1`: 654 s; `Cc1cc(NC(=O)CSc2nnc(C(C)C)c3cnn(-c4ccc(C)c(C)c4)c23)no1`: 845 s; `O=C(CSc1nnc2sc3ccccc3n12)N1CCOCC1`: 614 s. Next, `Cc1ccc(N2CCN(S(=O)(=O)c3cc(-c4nnc(C5CC5)o4)co3)CC2)cc1`: 818 s; `Cc1nn(CC(=O)NCCN2CCCC2)c(=O)c2cc(-c3ccccc3)nn12`: 631 s; `CCc1nnc2cc(N3CCN(S(=O)(=O)c4ccc(C(C)C)cc4)CC3)cnn12`: 820 s. Next, `Cc1cc(-c2nnc(C3CCC3)o2)c(C)n1CC(=O)Nc1cccc(Cl)c1`: 960 s; `Cc1ccc2oc(-c3nnc(C(=O)NCCN4CCOCC4)o3)c(C)c2c1`: 667 s; `COc1cn(CC(=O)NCC2CCCO2)c(CN2CCC(C)CC2)cc1=O` (centres undefined): 570 s. For the compound `CC1CCN(C(=O)CN2C(=O)C3CCCCN3c3ccc(S(=O)(=O)N(C)C)cc32)CC1` (centres undefined), the RP-LC retention time was 910 s. Next, `O=C1NCCCn2cc(S(=O)(=O)N3CCN(Cc4ccccc4)CC3)cc21`: 758 s.

`CC(C)c1ccc(Sc2ccc(N3CCC(C(=O)NCCCO)CC3)nn2)cc1`: the RP-LC retention time worked out at 703 s. On to `Cc1c(Cl)cccc1NC(=O)C1CCN(c2nc(C3CCC3)nc3csc(C)c23)CC1`, for which the RP-LC retention time worked out at 1000 s.

As for `CCOCCCNC(=O)Nc1ccc2nc3n(c(=O)c2c1)CCCC3`, the RP-LC retention time was determined as 563 s. Next, `CCSc1nnc(-c2nn(C)c3c2CN(S(=O)(=O)c2cc(F)ccc2F)CC3)n1CC`: 949 s; `Cn1nccc1-c1cccc(-c2noc(/C=C/c3cccs3)n2)c1`: 1160 s. Next, `Cc1ccc(C)c(NC(=O)Cn2c(N3CCC(C)CC3)nc(C)cc2=O)c1`: 772 s; `CC(C)CNC(=O)C1CCN(c2cnc(N3CCCCCC3)nc2)CC1`: 716 s. Next, `O=C(Cn1ccc2sccc2c1=O)Nc1cc(F)cc(F)c1`: 784 s.
